From PMC6105164 (Cancer Chemotherapy and Pharmacology, 2018)

Tests used:
US patients = conditions: cited from earlier work
[1] = system: Japanese patients with relapsed/refractory solid tumors; experiment: Safety: dose-limiting toxicity and adverse events (NCI-CTCAE v.4.0); type: in vivo, human; conditions: for Death: first and repeated regimens
From the text: Treatment was immediately terminated at the patient’s request when DLT occurred; the study physician decided that continuation was inappropriate because of AEs; or if the tumor was classified as progressive disease (PD) according to the Response Evaluation Criteria in Solid Tumor (RECIST) Guideline. In cases of DLT, patients were allowed to continue the regimen with dose adjustments upon providing written agreement.
Patients were registered when up to three patients received ≥ 60% of planned treatment in the regimen before DLT was evaluated for dose escalation. […] According to the DLT and pharmacokinetics data obtained by a given time, the recommended dose was determined and additional three patients were added to the dosing group a posteriori.
To evaluate the safety, vital signs (systolic and diastolic blood pressure, pulse rate, body temperature, and body weight), 12-lead electrocardiogram, clinical laboratory tests, chest X-ray, and performance status [Eastern Cooperative Oncology Group (ECOG)] were evaluated on predefined dates (Supplemental Table S1). Examined items in the clinical laboratory tests are listed in Supplemental Table S2.
AEs were graded in accordance with NCI-CTCAE v.4.0 and recorded. The study physicians determined whether the AEs were drug-related and recorded.

[2] = system: patients with KRAS mutations; conditions: previous phase II trial; cited from earlier work
[3] = Urine concentration of Salirasib (LC-MS/MS), day 1; type: in vivo, human; conditions: within 24 h, any dosing group (200, 600, 1000 mg sampled)
clinical = conditions: human, in vivo; for AUC(0-t): AUC12h
Protocol: This trial was a multiple-ascending dose trial in 28-day cycles. The doses used were 100, 200, 400, 600, 800, and 1000 mg. The initial dose (100 mg) was determined in accordance with the International Conference on Harmonisation of Technical Requirements for Registration of Pharmaceuticals for Human Use-S9 guideline. […] Patients received only the morning dose on day 1 for pharmacokinetics evaluation. […] Grades were determined according to the National Cancer Institute Common Terminology Criteria for Adverse Events (NCI-CTCAE v.4.0).
Blood samples were collected 10 times on day 1 (before drug administration, and 0.5-, 1-, 1.5-, 2-, 4-, 6-, 8-, 12-, and 24-h post-administration), once on days 4, 7, and 14, and 9 times on day 21 (before morning dose, and 0.5, 1, 1.5, 2, 4, 6, 8, and 12 h after morning dose but before evening dose). Urine samples were collected from patients who received 200, 600, or 1000 mg on day 1 (before drug administration, and 0–6-, 6–12-, 12–24-h post-administration).

RAS-mutated patients = conditions: previous phase I/II trials in the USA; cited from earlier work

CC(C)=CCC/C(C)=C/CC/C(C)=C/CSc1ccccc1C(=O)O [Salirasib, S-trans, trans-farnesylthiosalicylic acid]
drug-related AEs (US patients; US patients on 800-mg regimen): all patients on 800-mg regimen experienced drug-related AEs
Dose-limiting toxicity (DLT) (US patients; phase I trial in the US patients, up to 800 mg): no DLT was observed up to 800 mg
Death ([1]; 100 mg twice-daily): 0 (0.0) N (%)
Death ([1]; 200 mg twice-daily): 0 (0.0) N (%)
Death ([1]; 400 mg twice-daily): 0 (0.0) N (%)
Death ([1]; 600 mg twice-daily): 0 (0.0) N (%)
Death ([1]; 800 mg twice-daily): 0 (0.0) N (%)
Death ([1]; 1000 mg twice-daily): 0 (0.0) N (%)
Death ([1]; Total, all dose groups): 0 (0.0) N (%)
deaths during the treatment period, in words ([1]; all dose groups): No patients died
AEs observed at grade ≥ 3: ALP increased ([1]; human, in vivo): 3 (14.3) N (%)
AEs observed at grade ≥ 3: AST increased ([1]; human, in vivo): 1 (4.8) N (%)
AEs observed at grade ≥ 3: Amylase increased ([1]; human, in vivo): 1 (4.8) N (%)
AEs observed at grade ≥ 3: Anemia ([1]; human, in vivo): 2 (9.5) N (%)
AEs observed at grade ≥ 3: Ascites ([1]; human, in vivo): 1 (4.8) N (%)
AEs observed at grade ≥ 3: Bilirubin increased ([1]; human, in vivo): 1 (4.8) N (%)
AEs observed at grade ≥ 3: Cancer pain ([1]; human, in vivo): 1 (4.8) N (%)
AEs observed at grade ≥ 3: Cholestatic jaundice ([1]; human, in vivo): 1 (4.8) N (%)
AEs observed at grade ≥ 3: Decreased appetite ([1]; human, in vivo): 1 (4.8) N (%)
AEs observed at grade ≥ 3: Diarrhea ([1]; human, in vivo): 2 (9.5) N (%)
AEs observed at grade ≥ 3: Hemoglobin decreased ([1]; human, in vivo): 2 (9.5) N (%)
AEs observed at grade ≥ 3: Hypercalcemia ([1]; human, in vivo): 1 (4.8) N (%)
AEs observed at grade ≥ 3: Hyponatremia ([1]; human, in vivo): 2 (9.5) N (%)
AEs observed at grade ≥ 3: Hypophosphatemia ([1]; human, in vivo): 1 (4.8) N (%)
AEs observed at grade ≥ 3: Lymphopenia ([1]; human, in vivo): 1 (4.8) N (%)
AEs observed at grade ≥ 3: Troponin T increased ([1]; human, in vivo): 1 (4.8) N (%)
AEs observed at grade ≥ 3: γ-GTP increased ([1]; human, in vivo): 3 (14.3) N (%)
AEs observed in ≥ 3 patients: Abdominal pain ([1]; human, in vivo): 6 (28.6) N (%)
AEs observed in ≥ 3 patients: Decreased appetite ([1]; human, in vivo): 9 (42.9) N (%)
AEs observed in ≥ 3 patients: Diarrhea ([1]; human, in vivo): 18 (85.7) N (%)
AEs observed in ≥ 3 patients: Nausea ([1]; human, in vivo): 6 (28.6) N (%)
AEs observed in ≥ 3 patients: Vomiting ([1]; human, in vivo): 4 (19.0) N (%)
All AEs ([1]; human, in vivo): 21 (100) N (%)
All drug-related AEs ([1]; human, in vivo): 19 (90.5) N (%)
Discontinuation because of AEs ([1]; human, in vivo): 0 (0.0) N (%)
Discontinuation because of drug-related AEs ([1]; human, in vivo): 0 (0.0) N (%)
Dose-limiting toxicity (DLT) ([1]; human, in vivo): 0 (0.0) N (%)
Patients with AEs of grade ≥ 3 ([1]; human, in vivo): 9 (42.9) N (%)
Patients with drug-related AEs of grade ≥ 3 ([1]; human, in vivo): 4 (19.0) N (%)
Serious AEs ([1]; human, in vivo): 1 (4.8) N (%)
Serious drug-related AEs ([1]; human, in vivo): 0 (0.0) N (%)
patients in whom AEs were observed ([1]; human, in vivo): 21 patients
dose considered safe and tolerable ([1]; human, in vivo, 28 days): up to 1000 mg
AEs of grade ≥ 3, in words ([1]; in vivo): not observed
Dose-limiting toxicity (DLT), in words ([1]; in vivo): no DLT was observed
maximum tolerable dose ([1]; in vivo): No maximum tolerable dose was discerned
patients with drug-related AEs, in words ([1]; in vivo): in all patients except two
serious AE, in words ([1]; in vivo): One serious AE (ascites)
partial response (PR) [2]: no patients achieved PR
excretion in urine [3]: not excreted in urine
dose at which Cmax and AUCinf were maximal (clinical): 800 mg
dose proportionality of Cmax and AUC12h (power model analyses) (clinical): increased proportionally and in dose-dependent manners
half-life (clinical): 3.5 to 9.11 h
mean Cmax across dose groups (clinical): 1180 to 4870 ng/mL
time to Cmax, median, across dose groups (clinical): 2.10 to 4.05 h
AUC(0-inf) (clinical; 100 mg): 4970 ± 1600 ng·h/mL
CL/F, mean ± SD (clinical; 100 mg): 21.6 ± 6.80 L/h
half-life (clinical; 100 mg): 3.81 ± 0.25 h
tmax, Range (clinical; 100 mg): 1.52 to 3.88 h
AUC(0-t) (clinical; 100 mg, mean ± SD): 4700 ± 1490 ng·h/mL
Cmax (clinical; 100 mg, Cmax, mean ± SD): 1340 ± 473 ng/mL
AUC12h, mean ± SD (clinical; 200 mg): 10,500 ± 4450 ng h/mL
AUC(0-inf) (clinical; 200 mg): 11400 ng·h/mL
CL/F, mean ± SD (clinical; 200 mg): 19.1 ± 7.35 L/h
Cmax, mean ± SD (clinical; 200 mg): 2830 ± 822 ng/mL
half-life (clinical; 200 mg): 4.16 ± 1.13 h
tmax, Range (clinical; 200 mg): 2.13 to 4.00 h
AUC(0-t) (clinical; 200 mg, mean ± SD): 10400 ng·h/mL
Cmax (clinical; 200 mg, Cmax, mean ± SD): 2610 ± 837 ng/mL
AUC12h, mean ± SD (clinical; 400 mg): 14,800 ± 3520 ng h/mL
AUC(0-inf) (clinical; 400 mg): 20300 ng·h/mL
CL/F, mean ± SD (clinical; 400 mg): 20.1 ± 3.83 L/h
Cmax, mean ± SD (clinical; 400 mg): 3630 ± 876 ng/mL
half-life (clinical; 400 mg): 4 ± 1.88 h
AUC(0-t) (clinical; 400 mg, mean ± SD): 18000 ng·h/mL
Cmax (clinical; 400 mg, Cmax, mean ± SD): 3250 ± 1440 ng/mL
AUC12h, mean ± SD (clinical; 600 mg): 18,700 ± 4710 ng h/mL
AUC(0-inf) (clinical; 600 mg): 18500 ng·h/mL
CL/F, mean ± SD (clinical; 600 mg): 33.0 ± 5.25 L/h
Cmax, mean ± SD (clinical; 600 mg): 4500 ± 1580 ng/mL
half-life (clinical; 600 mg): 3.5 ± 0.39 h
tmax, Range (clinical; 600 mg): 1.42 to 4.00 h
AUC(0-t) (clinical; 600 mg, mean ± SD): 16900 ng·h/mL
Cmax (clinical; 600 mg, Cmax, mean ± SD): 4870 ± 2390 ng/mL
Tmax (clinical; 600 mg, Median): 2.1 h
Tmax (clinical; 600 mg, Range): 2 to 4 h
AUC12h, mean ± SD (clinical; 800 mg): 16,300 ± 6240 ng h/mL
AUC(0-inf) (clinical; 800 mg): 26600 ng·h/mL
CL/F, mean ± SD (clinical; 800 mg): 30.7 ± 4.55 L/h
Cmax, mean ± SD (clinical; 800 mg): 4790 ± 1100 ng/mL
dose proportionality of Cmax and AUCinf (power model analyses) (clinical; 800 mg): increased proportionally until 400 mg in dose-dependent manners
half-life (clinical; 800 mg): 3.67 ± 0.81 h
tmax, Range (clinical; 800 mg): 2.02 to 5.93 h
AUC(0-t) (clinical; 800 mg, mean ± SD): 23800 ng·h/mL
Cmax (clinical; 800 mg, Cmax, mean ± SD): 3840 ± 2090 ng/mL
Tmax (clinical; 800 mg, Median): 2.98 h
Tmax (clinical; 800 mg, Range): 1.42 to 5.98 h
AUC12h, mean ± SD (clinical; 1000 mg): 15,700 ± 9100 ng h/mL
Cmax, mean ± SD (clinical; 1000 mg): 4990 ± 1210 ng/mL
half-life (clinical; 1000 mg): 9.11 ± 9.79 h
AUC(0-t) (clinical; 1000 mg, mean ± SD): 22400 ng·h/mL
Cmax (clinical; 1000 mg, Cmax, mean ± SD): 2630 ± 1450 ng/mL
Tmax (clinical; 1000 mg, Range): 2 to 3.97 h
Cmax (clinical; mean Cmax across dose groups): 1340 to 4990 ng/mL
AUC(0-t) (clinical; po, 100 mg, mean ± SD): 4610 ng·h/mL
Cmax (clinical; po, 100 mg, Cmax, mean ± SD): 1180 ng/mL
AUC(0-inf) (clinical; po, 1000 mg): 26900 ng·h/mL
efficacy in RAS-mutated patients (RAS-mutated patients): not conclusive
tolerability (RAS-mutated patients): good tolerability
